PMC9841525, “Chemical Blockage of the Mitochondrial Rhomboid Protease PARL by Novel Ketoamide Inhibitors Reveals Its Role in PINK1/Parkin-Dependent Mitophagy” (Journal of Medicinal Chemistry, 2022)
*1 amine or outer side, *2 acyl side, *3 side chain or, on linkers, in order; H or OH if unused. Where a SMILES comes first, the peptide text is derived from it. [ ]: non-standard residue; d: D form. The star is where a group is joined. NH(4-phenylbutyl) = c1ccc(CCCCN*)cc1; X1 = C[C@H](N[*:1])C(=O)C(=O)[*:2]

Target: T1, PARL (Homo sapiens, UniProt Q9H300)
T1 sequence (Q9H300 53-379): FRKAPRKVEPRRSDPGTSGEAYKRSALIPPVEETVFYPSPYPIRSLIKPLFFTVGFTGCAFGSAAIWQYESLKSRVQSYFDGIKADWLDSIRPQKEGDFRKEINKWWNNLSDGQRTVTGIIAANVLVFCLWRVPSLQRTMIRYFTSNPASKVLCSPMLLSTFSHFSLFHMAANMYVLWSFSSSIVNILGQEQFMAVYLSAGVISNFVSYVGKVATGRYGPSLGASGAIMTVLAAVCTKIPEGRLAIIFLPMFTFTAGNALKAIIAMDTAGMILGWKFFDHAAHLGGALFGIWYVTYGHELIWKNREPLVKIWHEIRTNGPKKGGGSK
Assay: CCCP-induced PGAM5-FLAG cleavage by endogenous PARL in HEK293T cells, immunoblot
Type: cell-based
Parameters: expressed in transfected cells; host or cells: Flp-In HEK293 T-REx PARL knockout cells
Settings: 3 h, mean ± SEM of four experiments, read-out: Apparent IC50, CCCP-induced PGAM5 cleavage
Protocol: Inducible stable Flp-In HEK293 T-REx cells expressing PINK1 were described previously.[33] HEK293 T-REx PINK1 and HEK293T cells were grown in DMEM (Gibco) supplemented with 10% (v/v) fetal bovine serum (ThermoFisher), 1% (v/v) GlutaMAX (Gibco), 1% (v/v) sodium pyruvate (Gibco), 125 μg/mL hygromycin (Invitrogen), and 10 μg/mL blasticidin (Gibco) or DMEM supplemented with 10% (v/v) fetal bovine serum, respectively, at 37 °C in 5% (v/v) CO2. For microscopy, cells were seeded on poly-L-lysine (Sigma)-coated slides. Transient plasmid transfections were performed using 25 kDa linear polyethylenimine (Polysciences). Plasmid (100 ng) encoding HA-Parkin-IRES-GFP, mito-mCherry or Parkin-mEGFP, or 500 ng plasmid encoding PGAM5-FLAG were used per 6-well. Total transfected DNA was 2 μg/well. For siRNA transfection, 2 × 10^5 cells were seeded per 6-well and on the next day transfected with 20 nM siRNA-oligonucleotide using lipofectamine RNAiMAX (ThermoFisher). Cells were analyzed 27 h post-transfection or five days post-siRNA-transfection. HEK293 T-REx PINK1 cells were induced with 0.3 μg/mL doxycycline for 24 h before further processing. […] For quantification, ImageJ was used (http://rsb.info.nih.gov/ij/). Immunoblots shown are representative of at least three independent experiments and were evaluated using Excel and GraphPad Prism 9 (GraphPad Software, Inc.).

- IC50: 150 nM
SMILES: CC(=O)N[C@@H](C)C(=O)N[C@H](C(=O)N[C@@H](Cc1ccccc1)C(=O)N[C@@H](CC(C)C)C(=O)N[C@@H](C)C(=O)C(=O)NCCCCc1ccccc1)C(C)C [compound 5] (Ac-AVFL[X1]-{NH(4-phenylbutyl)})
